Reference: ChEMBL document CHEMBL4359915, “Design, synthesis and biological evaluation of novel diazaspiro[4.5]decan-1-one derivatives as potential chitin synthase inhibitors and antifungal agents” (Eur J Med Chem, 2019)
pIC50: −log10 of the molar value. ≈ marks a conversion by molar mass, not a printed value.

How the values were obtained:
[1] = system: Cryptococcus neoformans; assay: Antifungal activity against Cryptococcus neoformans ATCC 32719 assessed as fractional inhibitory concentration index after 24 hrs in presence of fluconazole by two-dimensional broth microdilution checkboard assay; format: functional
[2] = system: Bacillus spizizenii; assay: Antibacterial activity against Bacillus subtilis ATCC 6633 assessed as growth inhibition measured after 24 hrs by two-fold broth dilution method; format: functional; details: ATCC 6633, 24 h
[3] = system: Aspergillus flavus; assay: Antifungal activity against Aspergillus flavus ATCC 16870 assessed as fractional inhibitory concentration index after 24 hrs in presence of fluconazole by two-dimensional broth microdilution checkboard assay; format: functional
[4] = system: Staphylococcus aureus; assay: Antibacterial activity against methicillin-resistant Staphylococcus aureus N315 assessed as growth inhibition measured after 24 hrs by two-fold broth dilution method; format: functional; details: N315, 24 h
[5] = system: Pseudomonas aeruginosa; assay: Antibacterial activity against Pseudomonas aeruginosa ATCC 9027 assessed as growth inhibition measured after 24 hrs by two-fold broth dilution method; format: functional; details: ATCC 9027, 24 h
[6] = system: Candida albicans; assay: Antifungal activity against Candida albicans ATCC 76615 assessed as growth inhibition measured after 24 hrs by two-fold broth dilution method; format: functional; details: ATCC 76615, 24 h
[7] = system: Candida albicans; assay: Antifungal activity against Candida albicans ATCC 76615 assessed as fractional inhibitory concentration index after 24 hrs in presence of fluconazole by two-dimensional broth microdilution checkboard assay; format: functional
[8] = system: Cryptococcus neoformans; assay: Antifungal activity against Cryptococcus neoformans ATCC 32719 assessed as fluconazole MIC after 24 hrs in presence of fluconazole by two-dimensional broth microdilution checkboard assay; format: functional; details: ATCC 32719, 24 h
[9] = system: Aspergillus fumigatus; assay: Antifungal activity against Aspergillus fumigatus GIMCC 3.19 assessed as fluconazole MIC after 24 hrs in presence of fluconazole by two-dimensional broth microdilution checkboard assay; format: functional; details: GIMCC 3.19, 24 h
[10] = system: Cryptococcus neoformans; assay: Antifungal activity against Cryptococcus neoformans ATCC 32719 after 24 hrs in presence of fluconazole by two-dimensional broth microdilution checkboard assay; format: functional; details: ATCC 32719, 24 h
[11] = system: Aspergillus flavus; assay: Antifungal activity against Aspergillus flavus ATCC 16870 assessed as fluconazole MIC after 24 hrs in presence of fluconazole by two-dimensional broth microdilution checkboard assay; format: functional; details: ATCC 16870, 24 h
[12] = system: Aspergillus flavus; assay: Antifungal activity against Aspergillus flavus ATCC 16870 assessed as growth inhibition measured after 24 hrs by two-fold broth dilution method; format: functional; details: ATCC 16870, 24 h
[13] = system: Aspergillus fumigatus; assay: Antifungal activity against Aspergillus fumigatus GIMCC 3.19 assessed as growth inhibition measured after 24 hrs by two-fold broth dilution method; format: functional; details: GIMCC 3.19, 24 h
[14] = system: Proteus vulgaris; assay: Antibacterial activity against Bacillus proteus ATCC 8427 assessed as growth inhibition measured after 24 hrs by two-fold broth dilution method; format: functional; details: ATCC 8427, 24 h
[15] = system: Aspergillus flavus; assay: Antifungal activity against Aspergillus flavus ATCC 16870 after 24 hrs in presence of fluconazole by two-dimensional broth microdilution checkboard assay; format: functional; details: ATCC 16870, 24 h
[16] = system: Aspergillus fumigatus; assay: Antifungal activity against Aspergillus fumigatus GIMCC 3.19 after 24 hrs in presence of fluconazole by two-dimensional broth microdilution checkboard assay; format: functional; details: GIMCC 3.19, 24 h
[17] = system: Candida tropicalis; assay: Inhibition of Candida tropicalis ATCC 750 chitin synthase at 300 ug/ml using UDP-GlcNAc as substrate relative to control
[18] = system: Escherichia coli; assay: Antibacterial activity against Escherichia coli JM 109 assessed as growth inhibition measured after 24 hrs by two-fold broth dilution method; format: functional; details: JM 109, 24 h
[19] = system: Candida albicans; assay: Antifungal activity against Candida albicans ATCC 76615 assessed as fluconazole MIC after 24 hrs in presence of fluconazole by two-dimensional broth microdilution checkboard assay; format: functional; details: ATCC 76615, 24 h
[20] = system: Candida albicans; assay: Antifungal activity against Candida albicans ATCC 76615 after 24 hrs in presence of fluconazole by two-dimensional broth microdilution checkboard assay; format: functional; details: ATCC 76615, 24 h
[21] = system: Cryptococcus neoformans; assay: Antifungal activity against Cryptococcus neoformans ATCC 32719 assessed as growth inhibition measured after 24 hrs by two-fold broth dilution method; format: functional; details: ATCC 32719, 24 h
[22] = system: Staphylococcus aureus; assay: Antibacterial activity against Staphylococcus aureus ATCC 25923 assessed as growth inhibition measured after 24 hrs by two-fold broth dilution method; format: functional; details: ATCC 25923, 24 h
[23] = system: Aspergillus fumigatus; assay: Antifungal activity against Aspergillus fumigatus GIMCC 3.19 assessed as fractional inhibitory concentration index after 24 hrs in presence of fluconazole by two-dimensional broth microdilution checkboard assay; format: functional
[24] = system: Candida albicans; assay: Antifungal activity against Candida albicans ATCC 90023 assessed as growth inhibition measured after 24 hrs by two-fold broth dilution method; format: functional; details: ATCC 90023, 24 h
[25] = Inhibition of Candida tropicalis ATCC 750 chitin synthase using UDP-GlcNAc as substrate
[26] = Inhibition of Saccharomyces cerevisiae CGMCC 2.145 chitin synthase using GlcNAc and UDP-GlcNAc as substrate incubated for 60 mins by microplate reader analysis

Structure (SMILES)	fractional inhibitory concentration index (FICI) [1]	MIC [2] [µM]	fractional inhibitory concentration index (FICI) [3]	MIC [4] [µM]	MIC [5] [µM]	MIC [6]	fractional inhibitory concentration index (FICI) [7]	MIC [8] [µM]	MIC [9] [µM]	MIC [10] [µM]	MIC [11] [µM]	MIC [12]	MIC [13]	MIC [14] [µM]	MIC [15] [µM]	MIC [16] [µM]	inhibition [17] [%]	MIC [18] [µM]	MIC [19] [µM]	MIC [21]	also measured
O=C(Nc1cc(C(F)(F)F)cc(C(F)(F)F)c1)[C@H](O)[C@@H](O)C(=O)N1CCC2(CCNC2=O)CC1	3	510 (≈ 254 µg/mL)	0.5	260 (≈ 129 µg/mL)	510 (≈ 254 µg/mL)	32 µM	1	52	52	129	52	515 µM	515 µM	1030 (≈ 512 µg/mL)	129	129	2.3	60 (≈ 29.8 µg/mL)	26	64 µM	MIC [20]: 16 µM; MIC [22]: 1030 µM (≈ 512 µg/mL); fractional inhibitory concentration index (FICI) [23]: 0.8; MIC [24]: 260 µM (≈ 129 µg/mL)
O=C(Nc1ccc(Cl)cc1)[C@H](O)[C@@H](O)C(=O)N1CCC2(CCNC2=O)CC1	2	1290 (≈ 511 µg/mL)	1	650 (≈ 257 µg/mL)	1290 (≈ 511 µg/mL)	162 µM	0.3	52	52	162	104	323 µM	323 µM	650 (≈ 257 µg/mL)	162	81	66.5	320 (≈ 127 µg/mL)	13	162 µM	pIC50 [25]: 3.57; MIC [20]: 10 µM; MIC [22]: 320 µM (≈ 127 µg/mL); fractional inhibitory concentration index (FICI) [23]: 0.8; MIC [24]: 320 µM (≈ 127 µg/mL)
O=C(Nc1ccc(F)c(Cl)c1)[C@H](O)[C@@H](O)C(=O)N1CCC2(CCNC2=O)CC1	2.3	620 (≈ 257 µg/mL)	1	150 (≈ 62.1 µg/mL)	620 (≈ 257 µg/mL)	309 µM	1.3	104	52	77	104	155 µM	155 µM	310 (≈ 128 µg/mL)	77	155	70.6	310 (≈ 128 µg/mL)	52	309 µM	pIC50 [25]: 3.66; MIC [20]: 77 µM; MIC [22]: 310 µM (≈ 128 µg/mL); fractional inhibitory concentration index (FICI) [23]: 1.5; MIC [24]: 150 µM (≈ 62.1 µg/mL)
COc1ccc(N2CCN(C(=O)[C@H](O)[C@@H](O)C(=O)Nc3c(O)c4cc(O)ccc4oc3=O)CC2)cc1						16 to 64 µg/mL						16 to 64 µg/mL	16 to 64 µg/mL							16 to 64 µg/mL	pIC50 [26]: 4.00
COc1ccc(NC(=O)[C@H](O)[C@@H](O)C(=O)N2CCC3(CCNC3=O)CC2)cc1	1.5	1310 (≈ 513 µg/mL)	0.8	650 (≈ 254 µg/mL)	1310 (≈ 513 µg/mL)	164 µM	2	26	52	327	52	164 µM	82 µM	330 (≈ 129 µg/mL)	82	41	78.3	330 (≈ 129 µg/mL)	52	327 µM	pIC50 [25]: 3.92; MIC [20]: 164 µM; MIC [22]: 330 µM (≈ 129 µg/mL); fractional inhibitory concentration index (FICI) [23]: 1; MIC [24]: 330 µM (≈ 129 µg/mL)
